In article PMC7481439 (Frontiers in Pediatrics, 2020):
Marks after values point to notes of the source that are not given here.

Tests used:
[1] = Table 2; Drug Bank online database; cited from earlier work
[2] = Spontaneous drug degradation (T2 control sample analysed at 24 h); conditions: whole blood control sample drawn at 2 min, kept in EDTA tube at the temperature of the circuits until 24 h; difference in drug recovery between T2 and T2-24; average
[3] = volume of distribution, listed under physico-chemical data; source not stated for Vd; cited from earlier work
[4] = In vitro closed-loop ECMO circuit model: drug recovery / sequestration
[5] = neonatal centrifugal-based circuit, volume 200 ml, recovery at 180 min, n = 2; ref Wildschut ([18]); cited from earlier work
[6] = adult centrifugal-based circuit, volume 670 ml, n = 4, ref Shekar ([22]); cited from earlier work
[7] = adult centrifugal-based circuit, volume 800 ml, n = 3, ref Lemaitre ([39]); cited from earlier work
[8] = design: method as in PMID 18048412; conditions: Drug Bank online database; cited from earlier work

SMILES	PB % [1] [%]	Spontaneous degradation [2] [%]	Vd [3] [L/kg]	Decrease of drug level after 24 h, ILA active ([4]; ILA active circuit, whole blood primed, 24-h exposure) [%]	Mean drug recovery after 24 h of circulation, r-ML ([4]; MiniLung (infant) circuit, whole blood primed, 700 ml/min, 24 h, dose VOR 40 mg, VAN 54 mg, expected level VOR 117.1, VAN 177.1 mg/L, corrected for spontaneous degradation, plasma, LC-MS/MS (VOR) or immune-assay (VAN), mean (±SD), n = 2 circuits, SD)	Mean drug recovery after 24 h of circulation, r-MLP ([4]; MiniLung petite (neonatal) circuit, whole blood primed, 500 ml/min, 24 h, dose VOR 35 mg, VAN 45 mg, expected level VOR 140, VAN 180 mg/L, corrected for spontaneous degradation, plasma, LC-MS/MS (VOR) or immune-assay (VAN), mean (±SD), n = 3 circuits, SD)	Decrease of drug level after 24 h, XLung ([4]; XLung circuit, whole blood primed, 24-h exposure) [%]	Mean drug recovery after 24 h of circulation, r-XL ([4]; Xlung (adult) circuit, whole blood primed, […], 24 h, dose VOR 68 mg, VAN 91.8 mg, expected level VOR 143.2, VAN 193.7 mg/L, corrected for spontaneous degradation, plasma, LC-MS/MS (VOR) or immune-assay (VAN), mean (±SD), n = 2 circuits, SD)	Mean drug recovery at 24 h, ML ([4]; current experiment, MiniLung circuit, whole blood primed, volume 310 ml, 24 h, n = 2) [%]	Mean drug recovery at 24 h, MLP ([4]; current experiment, MiniLung petite circuit, whole blood primed, volume 250 ml, 24 h, n = 3) [%]	Mean drug recovery at 24 h, Xlung ([4]; current experiment, Xlung circuit, whole blood primed, volume 480 ml, 24 h, n = 2) [%]	Mean drug recovery at 24 h, iLA ([4]; current experiment, iLAActivve circuit, whole blood primed, volume 400 ml, 24 h, n = 2) [%]	Mean drug recovery after 24 h of circulation, r-iLA ([4]; iLAActivve iLA (pediatric) circuit, whole blood primed, […], 24 h, dose VOR 52.5 mg, VAN 67.5 mg, expected level VOR 134.7, VAN 173.2 mg/L, corrected for spontaneous degradation, plasma, LC-MS/MS (VOR) or immune-assay (VAN), mean (±SD), n = 2 circuits)	Mean percentage of drug recovery at 24 h ([4]; mean over all nine whole-blood primed circuits (MLP, ML, iLA, XLung), single bolus, pre-membrane (P2) plasma samples, 24 h, corrected for average spontaneous degradation, LC-MS/MS (voriconazole), immune-assay Architect (vancomycin), samples in triplicate) [%]	Decrease of drug level after 24 h, minilung ([4]; minilung circuit, whole blood primed, 24-h exposure) [%]	Mean drug recovery, Medos n [5]	Mean drug recovery at 24 h, Quadrox a (Shekar) [6] [%]	Mean drug recovery at 24 h, Quadrox a (Lemaitre) [7] [%]	LogP [8]
CN[C@H](CC(C)C)C(=O)N[C@H]1C(=O)N[C@@H](CC(N)=O)C(=O)N[C@H]2C(=O)N[C@H]3C(=O)N[C@H](C(=O)N[C@H](C(=O)O)c4cc(O)cc(O)c4-c4cc3ccc4O)[C@H](O)c3ccc(c(Cl)c3)Oc3cc2cc(c3O[C@@H]2O[C@H](CO)[C@@H](O)[C@H](O)[C@H]2O[C@H]2C[C@](C)(N)[C@H](O)[C@H](C)O2)Oc2ccc(cc2Cl)[C@H]1O [vancomycin]	50	2.4	0.4 to 1	38	133.2 (±49.7) mg/L	112 (±31.6) mg/L	50	96.5 (±13.5) mg/L	73	60	48	60	108.5 (±4,4) mg/L	62	25	67.1^* %	90	100	
C[C@@H](c1ncncc1F)[C@](O)(Cn1cncn1)c1ccc(F)cc1F [voriconazole]	58		4.6																1.8
